Experimental data from patent publication US6891057B2, “Compounds for generating chemiluminescence with a peroxidase” (Lumigen, Inc., priority 1997, dated 2005).

Target: T1, horseradish peroxidase (HRP) (Armoracia rusticana, UniProt P00433)
T1 sequence (P00433 31-338 limits assumed): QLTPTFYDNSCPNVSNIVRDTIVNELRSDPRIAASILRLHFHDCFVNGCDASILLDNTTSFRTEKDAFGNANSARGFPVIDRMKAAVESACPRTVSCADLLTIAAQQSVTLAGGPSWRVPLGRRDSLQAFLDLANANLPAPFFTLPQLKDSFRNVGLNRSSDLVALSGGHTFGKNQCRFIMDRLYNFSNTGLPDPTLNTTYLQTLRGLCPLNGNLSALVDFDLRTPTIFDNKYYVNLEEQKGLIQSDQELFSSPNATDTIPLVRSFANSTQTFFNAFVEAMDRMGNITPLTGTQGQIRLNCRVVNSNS
Test: Chemiluminescent detection of HRP: reaction of compound with peroxidase and peroxide
Type: biochemical
Conditions: for time to maximum chemiluminescence intensity: 0.01 M tris pH 8.0, 0.5 mM urea peroxide, 0.1 mM p-phenylphenol, 1 mM EDTA, 0.025% Tween 20, 5×10^−5 M acridan, HRP 3.5×10^−16 to 1.4×10^−15 moles
Procedure: FIG. 1 is a graph relating the amount of HRP to the chemiluminescence intensity at 15 min emitted by 100 μL of a reagent described in Example 20 containing acridan phosphate 5 triggered at room temperature. Chemiluminescence emission was initiated by addition of 10 μL of solutions of HRP containing between 1.4×10^−15 and 1.4×10^−19 moles of enzyme to 100 μL of the reagent comprising 0.055 M tris buffer, pH 8.6, 0.25 mM urea peroxide, 0.05 mM p-phenylphenol, 0.5 mM EDTA, 0.0125% Tween 20 and 3.3×10^−4 M acridan 5 in the wells of a black microplate. The term S-B refers to the chemiluminescence signal (S) in Relative Light Units (RLU) in the presence of HRP corrected for background chemiluminescence (B) in the absence of HRP.
FIG. 2 is a graph relating the amount of HRP to the chemiluminescence intensity at 15 min emitted by 100 μL of a reagent described in Example 21 containing acridan phosphate 13 triggered at room temperature. Chemiluminescence emission was initiated by addition of 10 μL of solutions of HRP containing between 1.4×10^−15 and 1.4×10^−19 moles of enzyme to 100 μL of a reagent comprising 0.055 M tris buffer, pH 8.6, 0.25 mM urea peroxide, 0.05 mM p-phenylphenol, 0.5 mM EDTA, 0.0125% Tween 20 and 3.3×10^−4 M acridan 13 in a black microplate.
FIG. 3 is a graph showing the time profile of chemiluminescence resulting from reaction of 1.4×10^−15 moles of HRP at 25° C. with 100 μL of the reagent containing acridan 5 described in Example 20.
(§1) FIG. 4 is a graph relating the amount of HRP to the maximum chemiluminescence intensity at 2 min emitted by 100 μL of a reagent containing acridan 37 triggered at room temperature. Chemiluminescence emission was initiated by addition of 10 μL of solutions of HRP containing between 1.4×10^−14 to 1.4×10^−19 moles to 100 μL of reagent composition comprising 0.01 M tris buffer, pH 8.0, 0.5 mM urea peroxide, 0.1 mM p-phenylphenol, 1 mM EDTA, 0.025% Tween 20 and 5×10^−5 M acridan 37.
FIG. 5 is a graph showing the time profile of chemiluminescence resulting from reaction of 1.4×10^−15 moles of HRP at 25° C. with 40 μL of a reagent comprising 0.01 M tris buffer, pH 8.0, 0.5 mM urea peroxide, 0.1 mM p-phenylphenol, 1 mM EDTA, 0.025% Tween 20 and 5×10^−5 M acridan 38.
as §1, with “FIG. 6” for “FIG. 4”, “at 30” for “at 2”, “acridan 39” for “acridan 37”, “between 1.4×10^−15” for “between 1.4×10^−14”, “to 1.4×10^−20” for “to 1.4×10^−19”, “acridan 39.” for “acridan 37.”
FIG. 7 is a graph showing the time profile of chemiluminescence resulting from reaction of 3.5×10^−16 moles of HRP at 25° C. with 100 μL of a reagent comprising 0.01 M tris buffer, pH 8.0, 0.5 mM urea peroxide, 0.1 mM p-phenylphenol, 1 mM EDTA, 0.025% Tween 20 and 5×10^−5 M acridan 50.
FIG. 8 is a graph relating the amount of HRP to the maximum chemiluminescence intensity at 15 min emitted by 100 μL of a reagent containing acridan 43 triggered at room temperature. Chemiluminescence emission was initiated by addition of 10 μL of solutions of HRP containing between 1.4×10^−15 to 1.4×10^−19 moles to 100 μL of a reagent composition comprising 0.055 M tris buffer, pH 8.6, 0.25 mM urea peroxide, 0.05 mM p-phenylphenol, 0.5 mM EDTA, 0.0125% Tween 20, 1 mM CTAB and 6.6×10^−4 M acridan 43.
Reagent compositions comprising 0.055 M tris buffer, pH 8.6, 0.25 mM urea peroxide, 0.05 mM p-phenylphenol, 0.5 mM EDTA, 0.0125% Tween 20, 1 mM CTAB and 3.3×10^−4 M compound 46 alone or with 50 μM DBA were tested for production of chemiluminescence by reacting a 100 μL aliquot with 3.5×10^−15 moles of HRP. […]

production of chemiluminescence on reaction with a peroxidase and a peroxide | time to maximum chemiluminescence intensity | increase of light intensity when CTAB was included in the reaction mixture (reaction with a peroxidase and a peroxide, with vs without CTAB) | Structure (SMILES)
Light production ensued upon mixing | 30 min | – | CC(=O)OC(Oc1ccccc1)=C1c2ccccc2N(C)c2ccccc21 [Compound 39]
Light production ensued upon mixing | 7 min | – | COC(Sc1ccccc1)=C1c2ccccc2N(C)c2ccccc21 [Compound 50]
Light production ensued upon mixing | 7 min | – | CC(=O)OC(Sc1ccccc1)=C1c2ccccc2N(C)c2ccccc21 [Compound 40]
– | – | increased more than ten-fold | C/C(=C(/OP(=O)([O-])[O-])Sc1ccccc1)c1ccc2cc([O-])ccc2c1.[Na+].[Na+].[Na+] [Compound 43]

Structure (SMILES) | production of chemiluminescence on reaction with a peroxidase and a peroxide | time to maximum chemiluminescence intensity | increase of light intensity when CTAB was included in the reaction mixture (reaction with a peroxidase and a peroxide, with vs without CTAB)
CCOP(=O)(OCC)OC(Oc1ccccc1)=C1c2ccccc2N(C)c2ccccc21 [Compound 37] | Light production ensued upon mixing | – | –
CCOP(=O)(OCC)OC(Sc1ccccc1)=C1c2ccccc2N(C)c2ccccc21 [Compound 38] | Light production ensued upon mixing | 1 min | –
